Measured values as given in US8927590B2, “Synthesis of pyrrolidine compounds” (Zealand Pharma A/S, priority 2006, dated 2015).
Read-outs that look alike come from different tables or passages of the source.

Test: Dynamic vapor sorption (DVS) at a series of relative humidity conditions
Format: physicochemical
Experimental: In some embodiments, the (2S,4R)-1-(2-aminoacetyl)-4-benzamidopyrrolidine-2-carboxylic acid hydrochloride monohydrate is characterized by dynamic vapor sorption (“DVS”). DVS data were collected using Dynamix Vapor Sorption Apparatus (DVS-1) made by Surface Measurement System Ltd. Samples were analyzed by subjecting them to a series of relative humidity (RH) conditions at 25° C. The relative humidity was scanned from about 0% to about 90%.

| SMILES | stability of the solid form to changes in humidity (DVS conclusion) | increase in mass when relative humidity increased from 0% RH to 90% RH (DVS, 25° C., first cycle, 0 to about 1200 min (FIG. 7)) [%] | reversible change of mass between 0% RH and 10% RH (DVS, 25° C., 0% RH to 10% RH (FIG. 6)) | mass between 10% RH and about 70% RH (DVS, 25° C., 10% RH to about 70% RH (FIG. 6)) | stability of the solid form to changes in humidity (DVS conclusion) (DVS, 25° C., RH cycled about 0% to about 90%) | reversible mass change between about 70% RH and 90% RH (DVS, 25° C., about 70% RH to 90% RH (FIG. 6)) [%] |
| --- | --- | --- | --- | --- | --- | --- |
| Cl.NCC(=O)N1C[C@H](NC(=O)c2ccccc2)C[C@H]1C(=O)O [(2S,4R)-1-(2-Aminoacetyl)-4-benzamidopyrrolidine-2-carboxylic acid hydrochloride] | not stable to environmental changes in humidity | 21.7 |  |  |  |  |
| Cl.NCC(=O)N1C[C@H](NC(=O)c2ccccc2)C[C@H]1C(=O)O.O [(2S,4R)-1-(2-aminoacetyl)-4-benzamidopyrrolidine-2-carboxylic acid hydrochloride monohydrate] |  |  | about 1.5% | relatively stable mass | sorbed water is reversibly lost and does not appear to adversely affect the integrity of the crystalline form | ~2.5 |
